Results reported in patent US8648200B2, “Imidazole derivatives useful for the treatment of arthritis” (Eli Lilly and Company, priority 2011, dated 2014).

Key:
[1] = tested on: Dunkin Hartley guinea pigs; assay: Monoiodoacetate (MIA) In Vivo Model, incapacitance testing; design: species or system guinea pig; conditions: for Mean % Reduction of Pain Compared to Vehicle / Mean Difference in Hind Paw Weight Bearing (Saline knee-MIA knee): four hours post-dose; for Mean Difference in Hind Paw Weight Bearing (Saline knee-MIA knee): 9 days after MIA, Mean ± SEM, n=6; for pain versus vehicle (statistical comparison): Example 1 both doses (10 and 50 mg/kg), diclofenac 30 mg/kg, p<0.05 by Dunnett's test
Procedure: Male Dunkin Hartley guinea pigs weighing approximately 200-250 grams at the time of MIA injection are used to measure pain in the MIA model. The guinea pigs are group housed in a child's wading pool and maintained in a constant temperature and on a 12 hour light/12 hour dark cycle. On the day before study, the guinea pigs are moved to standard caging with 2 animals per cage. Animals have free access to food and water at all times except during data collection. All experiments are carried out according to protocols approved by the Eli Lilly Institutional Animal Care and Use Committees.
In the standard MIA model the right knees of each guinea pig are injected with MIA (0.3 mg) in saline ([…]) and the left knees with saline (50 μl). Pain is measured at 9 days after MIA injection using incapacitance testing. Incapacitance testing measures the difference in hind paw weight bearing between the MIA and saline injected knees, and each value represents the average of 3 separate measurements each measured over 1 second.
For this study, guinea pigs, are dosed with either vehicle (10% Cremophor® EL (CAS 61791-12-6) in saline) or Example 1 (10 or 50 mg/kg). A fourth group of guinea pigs are also dosed with the nonsteroidal anti-inflammatory drug diclofenac (vehicle saline, 30 mg/kg), which acts as a positive control for the study, as it has previously shown efficacy in the model. All dosing is subcutaneous at a dose volume of 5 ml/kg and group size is n=6. Dose group is randomly assigned to each animal and dosing is staggered by 10 minutes for each guinea pig. Four hours post-dose, pain is measured using incapacitance testing. Results are reported in Table 13 as the mean difference in weight bearing between saline and MIA injected knees and statistical comparisons are made between vehicle treated and compound treated animals to assess the effect of the compound of Example 1 on knee pain in the model.
Data is evaluated by one way analysis of variance; p<0.05 by Dunnett's test for comparison to vehicle and a Bonferroni adjustment is used for comparison between groups.

[2] = target: T1, Human mPGES-1 (Homo sapiens, UniProt O14684); assay: Human mPGES-1 Enzyme Inhibition Assay; assay type: biochemical; conditions: microsomes from 293E cells, 1.69 μM PGH2; mean±standard deviation; n=10/22
T1 construct: host or cells: 293E cells (transient expression from pcDNA3.1); microsomes
T1 sequence (O14684 1-152): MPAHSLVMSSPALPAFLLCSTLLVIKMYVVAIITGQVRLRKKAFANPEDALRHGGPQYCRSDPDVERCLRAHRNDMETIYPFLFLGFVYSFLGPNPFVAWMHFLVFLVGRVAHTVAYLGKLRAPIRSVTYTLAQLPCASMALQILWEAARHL
Procedure: Human mPGES-1 (Invitrogen™ (Cat #97002RG, clone ID 6374722)) is subcloned into pcDNA3.1 and transiently expressed in 293E cells. […] Briefly, pellets are brought up in homogenization buffer (15 mM Tris-HCl, pH 8.0; 0.25 M sucrose; 0.1 mM EDTA; 1 mM glutathione) and sonicated 5×30 seconds on ice. Homogenate is centrifuged at 5000×g for 10 minutes at 4° C. The supernatant fraction is decanted; loaded into Beckman Quick-Seal® tubes; and centrifuged at 150,000×g for 90 minutes at 4° C. The supernatant fraction is discarded by decantation; and the pellets are resuspended in assay buffer (10 mM sodium phosphate (pH 7.0), 10% glycerol, and 2.5 mM glutathione. Complete Protease Inhibitor Cocktail (Roche)). Protein concentration is determined using the Pierce Coomassie Plus™ reagent.
For the enzyme assay, the microsomes are diluted into assay buffer and 7 μL/well is added to 384 well plates. Compound dilution plates (Nunc Cat #249944) are generated on a Multimek™, and 1 μL/well is added to the assay plates. Prostaglandin H2 (PGH2) is diluted into assay buffer immediately before use and 7 μL/well is added. Final concentrations are 4.4 μg/mL microsomes and 1.69 μM PGH2. After a 2.5 minute incubation at room temperature, 2.5 μL/well of 1 mg/mL of snCl2 in 0.5 N HCl is added to stop the reaction. […]

[3] = tested on: PGE2 formation; assay: Cell Based Assay for Measuring Eicosanoid Selectivity (A549, rhIL-1β induced PGE2); conditions: Homo sapiens; A549 cells, rhIL-1β 0.1-0.2 ng/mL, approx. 18 hours; mean±standard deviation; n=4; read-out: IC50 inhibition of PGE2 formation
Procedure: (§1) Human epithelial lung carcinoma cell line A549 is obtained from ATCC (CCL-185) and is maintained in Kaighn's F12 (“F12K”)+10% fetal bovine serum, (FBS) (plating medium), and 5% CO2. The cells are passaged at 1:3 twice a week.
(§2) For this assay, cells are released from flasks by washing once with phosphate buffered saline (PBS), then once with Trypsin/EDTA. After 3-5 minutes at 37° C., the cells are suspended in 10 mL of plating medium, and centrifuged at 2,000 rpm at 25° C. for 5 minutes. The supernatant is aspirated, and the cell pellet is resuspended in 10 mL F12K. Cell number is determined by counting an aliquot of cells, which has been diluted in PBS and Trypan blue on a hemocytometer. Cells are plated at 40,000/well in 96 well Falcon plates 24 hours prior to treatment. […] The plates are incubated at room temperature for 30-45 minutes, and then read on a plate reader at A490 to determine viability. […]
(§3) The conditioned medium is assayed for levels of PGE2 and PGI2 by specific enzyme immune-assays (ETAs) according to the manufacturer's protocols (Cayman) Briefly, conditioned medium (1 μL) is added to each well of a 96 well plate coated with a capture antibody and containing ETA buffer (49 μL) supplied by the manufacturer. […] After approximately 45 minutes at room temperature on an orbital shaker at 100 rpm, the plates are read at A412 on a plate reader. […]

[4] = tested on: PGF2α and TXB2 production; assay: Human Whole Blood Assay (LPS, PGF2α and TXB2); assay type: cell-based; conditions: LPS 100 μg/mL, 20-24 hours
Procedure: Blood is collected from normal volunteer donors into sodium heparin vacutainer tubes. Donors have not taken NSAIDs, aspirin, Celebrex, or glucocorticoids within two weeks of the donation. All tubes/donor are pooled into 250 mL Corning conical centrifuge tubes and 436.5 μL/well is distributed into deep well polypropylene plates. Compounds are diluted in DMSO to 100× final and 4.5 μL/well in duplicate or triplicate is added to give 7 point curves. The blood is pretreated at 37° C., 5% CO2, in a humidified atmosphere, loosely covered with a silicone cap mat, for 30 minutes after which 9 μL/well of a solution of 5 mg/mL of lipopolysaccharide (LPS) (Sigma 0111:B4) in 1 mg/mL bovine serum albumin (BSA)/PBS is added to give a final LPS concentration of 100 μg/mL. The plates are incubated for 20-24 hours, loosely covered, at 37° C., 5% CO2, in a humidified atmosphere, on an orbital shaker at approximately 100 rpm. The plates are tightly sealed with silicone cap mats and are chilled on ice for approximately 1 hour. Then the plates are centrifuged at 1800×g, 10 minutes, 4° C., in an Eppendorf 5810R centrifuge. […] One hundred microliters is quantitatively transferred to Costar cluster tubes blocks and 400 μL/well of the methanol stop reagent and internal standards, d-4PGE2, d-4PGF2α, and d-4TX2β are added. […] The products were analyzed by LC/MS/MS.

[5] = tested on: synthesis of other prostanoids; assay: Cell Based Assay for Measuring Eicosanoid Selectivity (A549, other prostanoids, PGI2); design: species or system human; conditions: A549 cells, rhIL-1β; PGI2 by enzyme immunoassay
Procedure: as §1, §2, §3

IC50 [2] | IC50 [3] | Structure (SMILES) | Mean % Reduction of Pain Compared to Vehicle ([1]; 30 mg/kg subcutaneous) | Mean Difference in Hind Paw Weight Bearing (Saline knee-MIA knee) ([1]; 30 mg/kg subcutaneous) | pain versus vehicle (statistical comparison) [1] | effect on PGF2α production [4] | effect on TXB2 production [4] | Mean % Reduction of Pain Compared to Vehicle ([1]; 10 mg/kg subcutaneous) | Mean Difference in Hind Paw Weight Bearing (Saline knee-MIA knee) ([1]; 10 mg/kg subcutaneous) | Mean % Reduction of Pain Compared to Vehicle ([1]; 50 mg/kg subcutaneous) | Mean Difference in Hind Paw Weight Bearing (Saline knee-MIA knee) ([1]; 50 mg/kg subcutaneous) | 50 mg/kg group compared with the 10 mg/kg group and the diclofenac group ([1]; 50 mg/kg, Bonferroni adjustment for comparison between groups) | effect on synthesis of other prostanoids [5]
– | – | O=C(O)Cc1ccccc1Nc1c(Cl)cccc1Cl [Diclofenac, diclofenac, reference compound] | 22% | 34.65 ± 1.14 g | significantly reduce pain | – | – | – | – | – | – | – | –
0.944 ± 0.59 nM | 12.1 ± 6.1 nM | Cc1nc(NC(=O)c2cc(CNC(=O)C(C)C)cnc2C(F)F)[nH]c1-c1ccc(C(F)(F)F)cc1 [Example 1, 2-(Difluoromethyl)-5-{[(2-methylpropanoyl)amino]methyl}-N-{4-methyl-5-[4-(trifluoromethyl)phenyl]-1H-imidazol-2-yl}pyridine-3-carboxamide] | – | – | significantly reduce pain | without inhibiting | without inhibiting | 15% | 37.53 ± 0.87 g | 36% | 28.44 ± 0.66 g | significantly different | without affecting the synthesis of other prostanoids
